Test results reported in PubChem BioAssay (NCI).
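Interpolation was linear, between the two tested concentrations surrounding the appropriate level; five concentrations were tested over 48 hours in 96-well plates. TGI is the concentration that stops growth completely.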

How the values were obtained:
Test in all cases: NCI anticancer screen, dose series, 48 h
KM12 colon = tested on: KM12 colon
HS 578T breast = tested on: HS 578T breast
PC-3 prostate = tested on: PC-3 prostate
UO-31 renal = tested on: UO-31 renal
HOP-92 NSCLC = tested on: HOP-92 NSCLC
DU-145 prostate = tested on: DU-145 prostate
SR leukemia = tested on: SR leukemia
LOX IMVI melanoma = tested on: LOX IMVI melanoma
SK-OV-3 ovarian = tested on: SK-OV-3 ovarian
TK-10 renal = tested on: TK-10 renal
K-562 leukemia = tested on: K-562 leukemia
CCRF-CEM leukemia = tested on: CCRF-CEM leukemia
COLO 205 colon = tested on: COLO 205 colon
MCF7 breast = tested on: MCF7 breast
RPMI-8226 leukemia = tested on: RPMI-8226 leukemia
MDA-MB-435 = tested on: MDA-MB-435
OVCAR-3 ovarian = tested on: OVCAR-3 ovarian
NCI-H460 lung = tested on: NCI-H460 lung
OVCAR-8 ovarian = tested on: OVCAR-8 ovarian
A498 renal = tested on: A498 renal
UACC-257 melanoma = tested on: UACC-257 melanoma
SNB-75 CNS = tested on: SNB-75 CNS
OVCAR-5 ovarian = tested on: OVCAR-5 ovarian
NCI/ADR-RES ovarian = tested on: NCI/ADR-RES ovarian
MDA-N = tested on: MDA-N
M14 melanoma = tested on: M14 melanoma
SF-268 CNS = tested on: SF-268 CNS
NCI-H522 lung = tested on: NCI-H522 lung
HOP-62 NSCLC = tested on: HOP-62 NSCLC
SK-MEL-5 melanoma = tested on: SK-MEL-5 melanoma
SN12C renal = tested on: SN12C renal
UACC-62 melanoma = tested on: UACC-62 melanoma
SF-539 CNS = tested on: SF-539 CNS
BT-549 breast = tested on: BT-549 breast
HT29 colon = tested on: HT29 colon
CAKI-1 renal = tested on: CAKI-1 renal
MALME-3M melanoma = tested on: MALME-3M melanoma
SF-295 CNS = tested on: SF-295 CNS
SK-MEL-28 melanoma = tested on: SK-MEL-28 melanoma
A549 NSCLC = tested on: A549 NSCLC
SW-620 colon = tested on: SW-620 colon
MOLT-4 leukemia = tested on: MOLT-4 leukemia
U251 CNS = tested on: U251 CNS
ACHN renal = tested on: ACHN renal
MDA-MB-231 breast = tested on: MDA-MB-231 breast
SNB-19 CNS = tested on: SNB-19 CNS
T-47D breast = tested on: T-47D breast
HL-60(TB) leukemia = tested on: HL-60(TB) leukemia
NCI-H23 lung = tested on: NCI-H23 lung
SK-MEL-2 melanoma = tested on: SK-MEL-2 melanoma
IGROV1 ovarian = tested on: IGROV1 ovarian
OVCAR-4 ovarian = tested on: OVCAR-4 ovarian
HCT-15 colon = tested on: HCT-15 colon
786-0 renal = tested on: 786-0 renal
HCC-2998 colon = tested on: HCC-2998 colon
NCI-H226 lung = tested on: NCI-H226 lung
EKVX NSCLC = tested on: EKVX NSCLC
HCT-116 colon = tested on: HCT-116 colon

O=C(Cc1nc2cccnc2nc1/C=C(\O)c1ccccc1)c1ccccc1
TGI (KM12 colon): > 100 µM | TGI (HS 578T breast): > 100 µM | TGI (PC-3 prostate): > 100 µM | TGI (UO-31 renal): 79.6 µM | TGI (HOP-92 NSCLC): 59 µM | TGI (DU-145 prostate): > 100 µM | TGI (SR leukemia): > 100 µM | TGI (LOX IMVI melanoma): 87 µM | TGI (SK-OV-3 ovarian): > 100 µM | TGI (TK-10 renal): > 100 µM | TGI (K-562 leukemia): > 100 µM | TGI (CCRF-CEM leukemia): 29.9 µM | TGI (COLO 205 colon): 25.1 µM | TGI (MCF7 breast): 27.6 µM | TGI (RPMI-8226 leukemia): 29 µM | TGI (MDA-MB-435): 82 µM | TGI (OVCAR-3 ovarian): 13.3 µM | TGI (NCI-H460 lung): 22.7 µM | TGI (OVCAR-8 ovarian): > 100 µM | TGI (A498 renal): 74 µM | TGI (UACC-257 melanoma): > 100 µM | TGI (SNB-75 CNS): 96.4 µM | TGI (OVCAR-5 ovarian): > 100 µM | TGI (NCI/ADR-RES ovarian): > 100 µM | TGI (MDA-N): > 100 µM | TGI (M14 melanoma): > 100 µM | TGI (SF-268 CNS): 46 µM | TGI (NCI-H522 lung): 35.6 µM | TGI (HOP-62 NSCLC): 58.4 µM | TGI (SK-MEL-5 melanoma): 38 µM | TGI (SN12C renal): 59.1 µM | TGI (UACC-62 melanoma): 18.6 µM | TGI (SF-539 CNS): > 100 µM | TGI (BT-549 breast): 38.4 µM | TGI (HT29 colon): > 100 µM | TGI (CAKI-1 renal): 30.5 µM | TGI (MALME-3M melanoma): > 100 µM | TGI (SF-295 CNS): 82.1 µM | TGI (SK-MEL-28 melanoma): > 100 µM | TGI (A549 NSCLC): > 100 µM | TGI (SW-620 colon): > 100 µM | TGI (MOLT-4 leukemia): > 100 µM | TGI (U251 CNS): > 100 µM | TGI (ACHN renal): > 100 µM | TGI (MDA-MB-231 breast): > 100 µM | TGI (SNB-19 CNS): > 100 µM | TGI (T-47D breast): > 100 µM | TGI (HL-60(TB) leukemia): 66.6 µM | TGI (NCI-H23 lung): > 100 µM | TGI (SK-MEL-2 melanoma): 65.4 µM | TGI (IGROV1 ovarian): > 100 µM | TGI (OVCAR-4 ovarian): > 100 µM | TGI (HCT-15 colon): > 100 µM

O=C1/C(=C/c2ccc(Cl)cc2)CCC/C1=C\c1ccc(O)c(CN2CCCCC2)c1
TGI (KM12 colon): 16.7 µM | TGI (HS 578T breast): 46 µM | TGI (PC-3 prostate): > 100 µM | TGI (UO-31 renal): 31.5 µM | TGI (HOP-92 NSCLC): 42.1 µM | TGI (786-0 renal): 34.5 µM | TGI (DU-145 prostate): 36.9 µM | TGI (HCC-2998 colon): 38.7 µM | TGI (SR leukemia): 9.67 µM | TGI (LOX IMVI melanoma): 42.5 µM | TGI (SK-OV-3 ovarian): 89.5 µM | TGI (TK-10 renal): 79.2 µM | TGI (K-562 leukemia): 66.1 µM | TGI (CCRF-CEM leukemia): 35 µM | TGI (COLO 205 colon): 59.3 µM | TGI (MCF7 breast): > 100 µM | TGI (MDA-MB-435): > 100 µM | TGI (OVCAR-3 ovarian): 87.5 µM | TGI (NCI-H460 lung): 94.3 µM | TGI (OVCAR-8 ovarian): 48.8 µM | TGI (A498 renal): 30 µM | TGI (UACC-257 melanoma): 90.7 µM | TGI (SNB-75 CNS): > 100 µM | TGI (OVCAR-5 ovarian): 50.4 µM | TGI (NCI/ADR-RES ovarian): 51.8 µM | TGI (MDA-N): > 100 µM | TGI (M14 melanoma): 49.3 µM | TGI (NCI-H226 lung): 35.5 µM | TGI (HOP-62 NSCLC): > 100 µM | TGI (SK-MEL-5 melanoma): 35.3 µM | TGI (SN12C renal): 87.8 µM | TGI (UACC-62 melanoma): 36 µM | TGI (EKVX NSCLC): 40.7 µM | TGI (SF-539 CNS): 58.3 µM | TGI (BT-549 breast): 31 µM | TGI (HT29 colon): 17.5 µM | TGI (CAKI-1 renal): 40.2 µM | TGI (MALME-3M melanoma): 59.1 µM | TGI (SF-295 CNS): 43.3 µM | TGI (SK-MEL-28 melanoma): 62.6 µM | TGI (A549 NSCLC): > 100 µM | TGI (SW-620 colon): > 100 µM | TGI (MOLT-4 leukemia): 69.4 µM | TGI (U251 CNS): 57.1 µM | TGI (ACHN renal): 30.7 µM | TGI (HCT-116 colon): 33.5 µM | TGI (MDA-MB-231 breast): 63.6 µM | TGI (SNB-19 CNS): > 100 µM | TGI (T-47D breast): 63.5 µM | TGI (HL-60(TB) leukemia): 7.25 µM | TGI (NCI-H23 lung): 49.1 µM | TGI (SK-MEL-2 melanoma): > 100 µM | TGI (IGROV1 ovarian): 44 µM | TGI (OVCAR-4 ovarian): 44.2 µM | TGI (HCT-15 colon): 27.2 µM
